These results are taken from patent US11596639B2, “Substituted indole Mcl-1 inhibitors” (Vanderbilt University, priority 2016, dated 2023).

Each structure is given as a SMILES string.

Assay [1] relates to H929 human cancer cell lines. The assay can be described thus: Cellular viability / proliferation (Cell TiterGlo, 72 h). The following applies: Homo sapiens, NCI-H929, 72 h, read-out: GI50 on cellular proliferation of H929 human cancer cell lines, H929 cells, 72 h, Cell TiterGlo, 10% FBS. It counts as cell-based. The procedure, abridged: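 Plating is at 1,000 cells/well in 10% FBS medium; after 24 h, compound is added as a 2-fold series starting at 50 μM with under 1% DMSO.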

The next assay deals with Mcl-1 (Homo sapiens (Human), UniProt Q07820). Put plainly: TR-FRET binding assay, FITC-Bak peptide and MBP-tagged Mcl-1. The following applies: read-out: Ki for Inhibition of Mcl-1 by TR-FRET assay. The method, then: Compounds are diluted in DMSO in a 16-point, semilog serial dilution scheme. […] The plate was mixed and incubated for 3 hours at room temperature. […] TR-FRET signal is plotted and IC50 and Ki values are calculated in the same manner as the fluorescence polarization anisotropy based competition assays.
Mcl-1, sequence (Q07820 172-327): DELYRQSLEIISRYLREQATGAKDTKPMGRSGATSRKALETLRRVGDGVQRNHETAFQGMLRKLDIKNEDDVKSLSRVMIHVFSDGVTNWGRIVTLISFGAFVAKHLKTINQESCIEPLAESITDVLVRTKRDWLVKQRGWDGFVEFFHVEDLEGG
A general note: Time-resolved FRET reads energy transfer from a long-lived donor to a nearby acceptor.

Broadly, the Ki is the dissociation constant of the complex between target and ligand, obtained from inhibition or displacement.

For `COCCOCCn1c(C(=O)O)cc2cccc(N3C[C@@H](C)n4c(c(CCCOc5cc(C)c(Cl)c(C)c5)c5ccc(Cl)c(-c6c(C)nn(C)c6C)c54)C3=O)c21` [Example 634, (R)-7-(7-chloro-10-(3-(4-chloro-3,5-dimethylphenoxy)propyl)-4-methyl-1-oxo-6-(1,3,5-trimethyl-1H-pyrazol-4-yl)-3,4-dihydropyrazino[1,2-a]indol-2(1H)-yl)-1-(2-(2-methoxyethoxy)ethyl)-1H-indole-2-carboxylic acid], the GI50 in assay [1] is 280 nM. For the same compound, the Ki on Mcl-1 is below 0.2 nM.

In the case of `COCCOCCn1c(C(=O)O)cc2cc(C)cc(N3C[C@@H](C)n4c(c(CCCOc5cc(C)c(Cl)c(C)c5)c5ccc(Cl)c(-c6c(C)ncnc6C)c54)C3=O)c21` [Example 635, (R)-7-(7-chloro-10-(3-(4-chloro-3,5-dimethylphenoxy)propyl)-6-(4,6-dimethylpyrimidin-5-yl)-4-methyl-1-oxo-3,4-dihydropyrazino[1,2-a]indol-2(1H)-yl)-1-(2-(2-methoxyethoxy)ethyl)-5-methyl-1H-indole-2-carboxylic acid], the GI50 in assay [1] is below 200 nM. Besides, on Mcl-1, the Ki was below 0.2 nM.

With `Cc1cc(OCCCc2c3n(c4c(-c5c(C)ncnc5C)c(Cl)ccc24)[C@H](C)CN(c2cn(C)c4ncc(C(=O)O)cc24)C3=O)cc(C)c1Cl` [Example 636, (R)-3-(7-chloro-10-(3-(4-chloro-3,5-dimethylphenoxy)propyl)-6-(4,6-dimethylpyrimidin-5-yl)-4-methyl-1-oxo-3,4-dihydropyrazino[1,2-a]indol-2(1H)-yl)-1-methyl-1H-pyrrolo[2,3-b]pyridine-5-carboxylic acid], the GI50 in assay [1] came out at 980 nM. Also, the Ki on Mcl-1 turned out to be 0.5 nM.

As to `Cc1cc(OCCCc2c3n(c4c(-c5c(C)nn(C)c5C)c(Cl)ccc24)[C@H](C)CN(c2cn(CC(=O)N(C)C)c4ccc(-c5ncccn5)cc24)C3=O)cc(C)c1Cl` [Example 637, (R)-2-(3-(7-Chloro-10-(3-(4-chloro-3,5-dimethylphenoxy)propyl)-4-methyl-1-oxo-6-(1,3,5-trimethyl-1H-pyrazol-4-yl)-3,4-dihydropyrazino[1,2-a]indol-2(1H)-yl)-5-(pyrimidin-2-yl)-1H-indol-1-yl)-N,N-dimethylacetamide], the GI50 in assay [1] worked out at 530 nM. Moreover, the Ki at Mcl-1 came out at 1.3 nM.

As for `Cc1cc(OCCCc2c3n(c4c(-c5c(C)nn(C)c5C)c(Cl)ccc24)[C@H](C)CN(c2cn(CC(=O)N(C)C)c4ccc(-c5ncn(Cc6ccccn6)n5)cc24)C3=O)cc(C)c1Cl` [Example 638, (R)-2-(3-(7-Chloro-10-(3-(4-chloro-3,5-dimethylphenoxy)propyl)-4-methyl-1-oxo-6-(1,3,5-trimethyl-1H-pyrazol-4-yl)-3,4-dihydropyrazino[1,2-a]indol-2(1H)-yl)-5-(1-(pyridin-2-ylmethyl)-1H-1,2,4-triazol-3-yl)-1H-indol-1-yl)-N,N-dimethylacetamide], the GI50 in assay [1] amounted to 600 nM. The Ki at Mcl-1 was found to be 1.7 nM.

Turning to `Cc1cccc(Cn2cnc(-c3ccc4c(c3)c(N3C[C@@H](C)n5c(c(CCCOc6cc(C)c(Cl)c(C)c6)c6ccc(Cl)c(-c7c(C)nn(C)c7C)c65)C3=O)cn4CC(=O)N(C)C)n2)n1` [Example 639, (R)-2-(3-(7-Chloro-10-(3-(4-chloro-3,5-dimethylphenoxy)propyl)-4-methyl-1-oxo-6-(1,3,5-trimethyl-1H-pyrazol-4-yl)-3,4-dihydropyrazino[1,2-a]indol-2(1H)-yl)-5-(1-((6-methylpyridin-2-yl)methyl)-1H-1,2,4-triazol-3-yl)-1H-indol-1-yl)-N,N-dimethylacetamide], in assay [1], the GI50 is 900 nM. For the same compound, the Ki at Mcl-1 was found to be 4.2 nM.

With `Cc1cc(OCCCc2c3n(c4c(-c5c(C)ncnc5C)c(Cl)ccc24)[C@H](C)CN(c2cn(C)c4cnc(C(=O)O)cc24)C3=O)cc(C)c1Cl` [Example 640, (R)-3-(7-chloro-10-(3-(4-chloro-3,5-dimethylphenoxy)propyl)-6-(4,6-dimethylpyrimidin-5-yl)-4-methyl-1-oxo-3,4-dihydropyrazino[1,2-a]indol-2(1H)-yl)-1-methyl-1H-pyrrolo[2,3-c]pyridine-5-carboxylic acid], the GI50 in assay [1] was 8100 nM. In addition, the Ki at Mcl-1 was below 0.2 nM.

With `C=C(C)c1ccnc(Cn2c(C(=O)O)cc3cc(C)cc(N4C[C@@H](C)n5c(c(CCCOc6cc(C)c(Cl)c(C)c6)c6ccc(Cl)c(-c7c(C)nn(C)c7C)c65)C4=O)c32)c1` [Example 641, (R)-7-(7-chloro-10-(3-(4-chloro-3,5-dimethylphenoxy)propyl)-4-methyl-1-oxo-6-(1,3,5-trimethyl-1H-pyrazol-4-yl)-3,4-dihydropyrazino[1,2-a]indol-2(1H)-yl)-5-methyl-1-((4-(prop-1-en-2-yl)pyridin-2-yl)methyl)-1H-indole-2-carboxylic acid], the GI50 in assay [1] worked out at 350 nM. Besides, on Mcl-1, the Ki is below 0.2 nM.

On to `Cc1cc(OCCCc2c3n(c4c(-c5c(C)ncnc5C)c(Cl)ccc24)[C@H](C)CN(c2cn(C)c4ccc(-c5ncccn5)cc24)C3=O)cc(C)c1Cl` [Example 642, (R)-7-Chloro-10-(3-(4-chloro-3,5-dimethylphenoxy)propyl)-6-(4,6-dimethylpyrimidin-5-yl)-4-methyl-2-(1-methyl-5-(pyrimidin-2-yl)-1H-indol-3-yl)-3,4-dihydropyrazino[1,2-a]indol-1(2H)-one], for which the GI50 in assay [1] was found to be 790 nM. Besides, on Mcl-1, the Ki is 3 nM.

`Cc1cc(OCCCc2c3n(c4c(-c5c(C)nn(C)c5C)c(Cl)ccc24)[C@H](C)CN(c2cn(C)c4ccc(-c5nc(C)n(C)n5)cc24)C3=O)cc(C)c1Cl` [Example 643, (R)-7-Chloro-10-(3-(4-chloro-3,5-dimethylphenoxy)propyl)-2-(5-(1,5-dimethyl-1H-1,2,4-triazol-3-yl)-1-methyl-1H-indol-3-yl)-4-methyl-6-(1,3,5-trimethyl-1H-pyrazol-4-yl)-3,4-dihydropyrazino[1,2-a]indol-1(2H)-one]: the GI50 in assay [1] stood at 340 nM. Moreover, the Ki at Mcl-1 was 1.3 nM.

Consider `Cc1cc(OCCCc2c3n(c4c(-c5c(C)ncnc5C)c(Cl)ccc24)[C@H](C)CN(c2cn(C)c4ncc(C(=O)O)nc24)C3=O)cc(C)c1Cl` [Example 644, (R)-7-(7-chloro-10(3-(4-chloro-3,5-dimethylphenoxy)propyl)-6-(4,6-dimethylpyrimidin-5-yl)-4-methyl-1-oxo-3,4-dihydropyrazino[1,2-a]indol-2(1H)-yl)-5-methyl-5H-pyrrolo[2,3-b]pyrazine-2-carboxylic acid], for which the GI50 in assay [1] is 1900 nM. For the same compound, the Ki on Mcl-1 is below 0.2 nM.

As to `Cc1cc(OCCCc2c3n(c4c(-c5c(C)nn(C)c5C)c(Cl)ccc24)[C@H](C)CN(c2cn(Cc4ccc(F)c(F)c4)c4ccc(C(=O)O)cc24)C3=O)cc(C)c1Cl` [Example 645, (R)-3-(7-chloro-10-(3-(4-chloro-3,5-dimethylphenoxy)propyl)-4-methyl-1-oxo-6-(1,3,5-trimethyl-1H-pyrazol-4-yl)-3,4-dihydropyrazino[1,2-a]indol-2(1H)-yl)-1-(3,4-difluorobenzyl)-1H-indole-5-carboxylic acid], the GI50 in assay [1] was determined as 3700 nM. In addition, the Ki on Mcl-1 was determined as 3.3 nM.

For `Cc1cc(OCCCc2c3n(c4c(-c5c(C)nn(C)c5C)c(Cl)ccc24)[C@H](C)CN(c2cn(C)c4ccc(-c5ncn(-c6ncccn6)n5)cc24)C3=O)cc(C)c1Cl` [Example 646, (R)-7-Chloro-10-(3-(4-chloro-3,5-dimethylphenoxy)propyl)-4-methyl-2-(1-methyl-5-(1-(pyrimidin-2-yl)-1H-1,2,4-triazol-3-yl)-1H-indol-3-yl)-6-(1,3,5-trimethyl-1H-pyrazol-4-yl)-3,4-dihydropyrazino[1,2-a]indol-1(2H)-one], the GI50 in assay [1] was 240 nM. In addition, the Ki on Mcl-1 was 0.3 nM.

Regarding `Cc1cc(OCCCc2c3n(c4c(-c5c(C)nn(C)c5C)c(Cl)ccc24)[C@H](C)CN(c2cn(C)c4ccc(-c5ncn(-c6ccccn6)n5)cc24)C3=O)cc(C)c1Cl` [Example 647, (R)-7-Chloro-10-(3-(4-chloro-3,5-dimethylphenoxy)propyl)-4-methyl-2-(1-methyl-5-(1-(pyridin-2-yl)-1H-1,2,4-triazol-3-yl)-1H-indol-3-yl)-6-(1,3,5-trimethyl-1H-pyrazol-4-yl)-3,4-dihydropyrazino[1,2-a]indol-1(2H)-one], the GI50 in assay [1] came out at 1100 nM. On Mcl-1, the Ki is 0.32 nM.

With `Cc1cc(OCCCc2c3n(c4c(-c5c(C)nn(C)c5C)c(Cl)ccc24)[C@H](C)CN(c2cn(C)c4ccc(-c5nc6ccccn6n5)cc24)C3=O)cc(C)c1Cl` [Example 648, (R)-2-(5-([1,2,4]Triazolo[1,5-a]pyridin-2-yl)-1-methyl-1H-indol-3-yl)-7-chloro-10-(3-(4-chloro-3,5-dimethylphenoxy)propyl)-4-methyl-6-(1,3,5-trimethyl-1H-pyrazol-4-yl)-3,4-dihydropyrazino[1,2-a]indol-1(2H)-one], in assay [1], the GI50 was found to be 310 nM. In addition, the Ki on Mcl-1 turned out to be 0.23 nM.

For `COC1CCN(Cc2cc(N3C[C@@H](C)n4c(c(CCCOc5cc(C)c(Cl)c(C)c5)c5ccc(Cl)c(-c6c(C)nn(C)c6C)c54)C3=O)c3c(c2)cc(C(=O)O)n3C)CC1` [Example 649, (R)-7-(7-chloro-10-(3-(4-chloro-3,5-dimethylphenoxy)propyl)-4-methyl-1-oxo-6-(1,3,5-trimethyl-1H-pyrazol-4-yl)-3,4-dihydropyrazino[1,2-a]indol-2(1H)-yl)-5-((4-methoxypiperidin-1-yl)methyl)-1-methyl-1H-indole-2-carboxylic acid], the GI50 in assay [1] is below 200 nM. Also, the Ki on Mcl-1 was below 0.2 nM.
